From BindingDB's records for doi:10.1124/jpet.104.066092 (Wyeth Research, 2004)

Target: Glutamate receptor ionotropic, NMDA 1 (Rattus norvegicus, UniProt P35439)

`O=C(O)[C@@H]1C[C@H](CP(=O)(O)O)CCN1` [Selfotel] was tested, and the Ki was greater than 10 µM.
